The text below walks through data of patent publication US11839607B2, “Memantine paroxetine cocrystal salt and its preparation method, pharmaceutical composition and application” (priority 2018, dated 2023).

Each structure is given as a SMILES string. Read-outs that look alike come from different tables or passages of the source.

This data set is described as follows: Pharmacokinetic experiment of memantine paroxetine cocrystal salt in rats (plasma memantine by LC-MS/MS). It counts as in vivo, SD rat. As to conditions: gavage. The text has this: Determination of the pharmacokinetic parameters of […] and paroxetine in rat plasma by LC-MS/MS method
The memantine paroxetine cocrystal salt prepared in embodiment 1; memantine hydrochloride; dexamethasone (Intermediate inspection office); ammonium formate; methanol is all chromatographic pure (Merck Company); formic acid is all chromatographic pure (Aladdin Company); acetonitrile is all chromatographic pure (Merck Company); experimental water is deionized purified water.
SD rat, SPF grade, male, weight 200-250 g, purchased from Zhejiang Experimental Animal Center, production license No.: SCXK (Zhejiang) 2014-0001.
Liquid mass spectrometer: Thermo Finnigan TSQ Quantum, composed of Surveyor As, Surveyor MS Pump Plus and TSQ Quantum, Thermo Fisher Scientific Company; Sartorius BP-211D electronic balance; Thermo STRATOS high speed freezing centrifuge; Eppendorf PCB-11 micro vortex mixer; Milli-Q Grandient pure water meter.
Chromatographic column: Waters Cortecs C18 (2.1 mm×50 mm, 2.7 μm); column temperature: 35° C.; mobile phase: acetonitrile-[…] ammonium formate containing 0.1% formic acid (10:90); flow rate: 0.2 mL·min^−1; sample injection volume: 5 μL.
Ion detection method: multiple reaction monitoring (MRM); ionic polarity: positive ion (Positive); ionization mode: electrospray ionization (ESI); ionization voltage (IS): 3000.0V; temperature: 300° C.; sheath gas: 35; auxiliary gas: 30.
10 rats are randomly divided into 2 groups, 5 rats in each group: group A: 5.6 mg/kg memantine hydrochloride; group B: 17.4 mg/kg cocrystal salt;
The rats are fasted for 12 h before the experiment, and the tested drugs re given by gavage with the volume of 1 mL/100 g. Before and 5, 10, 20, 40, 60, 120, 180, 240, 360 and 480 min after administration, 0.5 mL of blood is collected through the fundus vein plexus. Anticoagulate the heparin. Centrifugate at 4000 rpm for 10 min, and separate the plasma. It can be used for the determination of memantine concentration.

The mark [1] stands for this setting: male SD rats, same molar dose: group A 5.6 mg/kg memantine hydrochloride, group B 17.4 mg/kg cocrystal salt, average value.

What is called AUC(0-t) is exposure summed from dosing to a finite time, without extrapolation to infinity. By Cmax is commonly meant the maximum level reached in the sampled fluid or tissue. What is called Tmax is the time at which the peak concentration occurs. `CC12CC3CC(C)(C1)CC(N)(C3)C2.Fc1ccc([C@@H]2CCNC[C@H]2COc2ccc3c(c2)OCO3)cc1.O.O.O.O=S(=O)(O)O` [cocrystal salt, C19H20FNO3·C12H21N·H2SO4·3H2O]: under setting [1], the “AUC(0-t)” value worked out at 1.982124 ng·h/mL, the “AUC(0-∞)” value amounted to 3.16723 ng·h/mL, the CLz/F was determined as 94414.6 mL/min/kg and the Cmax was found to be 0.449186 ng/mL. Under setting [1], the “MRT(0-t)” value worked out at 3.298 h, the “MRT(0-∞)” value is 8.1 h, the T1/2z worked out at 5.605 h and the Tmax is 0.868 h. Also, under “same molar dose, rats”, the “AUC(0-∞) ratio, cocrystal salt versus memantine hydrochloride” value came out at 4.10 times; the “Cmax ratio, cocrystal salt versus memantine hydrochloride” value is listed as 1.62 times; the “T1/2 ratio, cocrystal salt versus memantine hydrochloride” value is reported as 2.79 times; the “Tmax ratio, cocrystal salt versus memantine hydrochloride” value stood at 1.41 times.

The AUC(0-inf) is the area under the concentration-time curve extrapolated to infinity. `CC12CC3CC(C)(C1)CC(N)(C3)C2.Cl` [memantine hydrochloride, 3,5-Dimethyl-1-aminoadamantane hydrochloride, reference compound]: the AUC(0-inf) (Sprague-Dawley (SD), rat, po, male SD rats, same molar dose: group A 5.6 mg/kg memantine hydrochloride, group B 17.4 mg/kg cocrystal salt, average value) was 0.773 ng·h/mL. For the same compound, the AUC(0-t) (Sprague-Dawley (SD), rat, po, male SD rats, same molar dose: group A 5.6 mg/kg memantine hydrochloride, group B 17.4 mg/kg cocrystal salt, average value, read-out: AUC(0-t)) was determined as 0.714 ng·h/mL. In addition, under “Sprague-Dawley (SD), rat, po, male SD rats, same molar dose: group A 5.6 mg/kg memantine hydrochloride, group B 17.4 mg/kg cocrystal salt, average value, read-out: Cmax”, the Cmax amounted to 0.276 ng/mL. Besides, under “Sprague-Dawley (SD), rat, po, male SD rats, same molar dose: group A 5.6 mg/kg memantine hydrochloride, group B 17.4 mg/kg cocrystal salt, average value, read-out: MRT(0-t)”, the MRT last stood at 2.43 h. Also, the MRT inf (Sprague-Dawley (SD), rat, po, male SD rats, same molar dose: group A 5.6 mg/kg memantine hydrochloride, group B 17.4 mg/kg cocrystal salt, average value, read-out: MRT(0-∞)) is 3.05 h. Moreover, the Tmax (Sprague-Dawley (SD), rat, po, male SD rats, same molar dose: group A 5.6 mg/kg memantine hydrochloride, group B 17.4 mg/kg cocrystal salt, average value, read-out: Tmax) amounted to 0.617 h. In addition, under setting [1], the CLz/F worked out at 123437.1 mL/min/kg and the T1/2z was 2.009 h.
